# Measured values published in US20220402914A1, “Tryptoline-Based Benzothiazoles and their use as Antibiotics and Antibiotic Resistance-Modifying Agents” (The Regents of the University of Colorado, a body corporate, priority 2019, published 2022).
# Counter-ions that a name gives are not always drawn. Like-named read-outs stand apart in the source and are kept apart here.
# How the values were obtained:
# MRSA ATCC BAA-44 [1] = assay: Minimal inhibitory concentration (MIC), standard broth microdilution; format: cell-based, Staphylococcus aureus; settings: for MIC: MRSA BAA-44 strain
# Procedure: (§1) RMA activity of the analogues was tested by assessing their abilities to sensitize MRSA to the antibiotic cefazolin (a first-generation cephalosporin). The well characterized strain MRSA ATCC BAA-44 was tested as previously described. […] The minimal inhibitory concentration (MIC), or the lowest concentration at which S. aureus is considered susceptible to an antibacterial, was determined by the standard broth microdilution method detailed in the CLSI handbook. RMA activity was compared by the ratio of MIC/MRC. The half growth inhibitory concentration (GI50) of each analogue against HeLa cells was determined as previously described. […] The luminescence of each sample was recorded in an Envision Multilabel Plate Reader (Perkin Elmer). Results of MICs and MRCs were confirmed by testing in triplicate. The GI50 assay was performed in duplicate.
# MRSA ATCC BAA-44 [2] = assay: Minimum re-sensitizing concentration (MRC) in the presence of cefazolin; format: cell-based, Staphylococcus aureus; settings: MRSA BAA-44, cefazolin
# Procedure: as §1
# HeLa cells = assay: GI50 against HeLa cells, Cell Titer Glo viability assay; format: cell-based, human; settings: for GI50: 24 h
# Procedure: as §1
# [3] = as above; format: cell-based, human; settings: human, HeLa cells, 24 h
# Procedure: as §1
# MRSA-252 = assay: MIC, scope of antibacterial activity; format: cell-based, S. aureus; settings: Staphylococcus aureus
# Procedure: as §1
# (§2) Furthermore, we explored the scope of the antibacterial activity of 12g in a panel of MRSA and MSSA strains including BAA-44 (MIC=1 μg/mL), MRSA-252 (MIC=2 μg/mL), B. subtilis NR-607 (MIC=2 μg/mL), E. faecium HM-460 (MIC=4 μg/mL), E. faecium 28977 (MIC=2 μg/mL) and MSSA (MIC=0.5 μg/mL).
# MSSA = assay: MIC, scope of antibacterial activity; format: cell-based, S. aureus; settings: Staphylococcus aureus
# Procedure: as §1, §2
# B. subtilis NR-607 = assay: MIC, scope of antibacterial activity; format: cell-based; settings: Bacillus subtilis, NR607
# Procedure: as §1, §2
# E. faecium 28977 = assay: MIC, scope of antibacterial activity; format: cell-based; settings: Enterococcus faecium
# Procedure: as §1, §2
# E. faecium HM-460 = assay: MIC, scope of antibacterial activity; format: cell-based; settings: Enterococcus faecium, HM460
# Procedure: as §1, §2
# multiple MRSA strains = assay: RMA activity in multiple MRSA strains with cephalosporins; format: cell-based, S. aureus
# Procedure: as §1
# We next explored the scope of RMA activity of 4ad in different MRSA strains, including MRSA BAA-1683, MRSA BAA-1764, MRSA NR-46411, NRS-384 and NRS-100. These strains were selected because of their diverse geographical origins, genetic background, and resistance profile. We also tested RMA activity in combination with another commercial antibiotic, cefuroxime, which is a second-generation cephalosporin. MRCs in the presence of cefuroxime were determined using the same method as those for cefazolin.
# [4] = Staphylococcus aureus, read-out: MIC
Compound,MIC (MRSA ATCC BAA-44 [1]; [4]),RMA activity (in words) (MRSA ATCC BAA-44 [2]),GI50 (HeLa cells),other results
"FC(F)(F)c1cccc2sc(N3CCc4c([nH]c5ccc(Cl)cc45)C3)nc12 [Compound 4af, 6-Chloro-2-[4-(trifluoromethyl)-1,3-benzothiazol-2-yl]-2,3,4,9-tetrahydro-1H-pyrido[3,4-b]indole]",> 32 µg/mL,good RMA activities,8 µg/mL,worse GI50 relative to 4w (HeLa cells): 3 fold
"Clc1ccc2sc(N3CCc4c([nH]c5ccc(Cl)cc45)C3)nc2c1 [Compound 4v, 6-Chloro-2-(5-chloro-1,3-benzothiazol-2-yl)-2,3,4,9-tetrahydro-1H-pyrido[3,4-b]indole]",–,no RMA activity,–,–
"CNc1cc(C(F)(F)F)c2nc(N3CCc4c([nH]c5ccc(Cl)cc45)C3)sc2c1 [Compound 4ai, 2-(6-Chloro-1,3,4,9-tetrahydro-2H-pyrido[3,4-b]indol-2-yl)-N-methyl-4-(trifluoromethyl)-1,3-benzothiazol-6-amine]",> 32 µg/mL,good RMA activities,15.4 µg/mL,–
"Cc1ccc2nc(N3CCc4c([nH]c5ccc(Cl)cc45)C3)sc2c1 [Compound 4c, 6-Chloro-2-(6-methyl-1,3-benzothiazol-2-yl)-2,3,4,9-tetrahydro-1H-pyrido[3,4-b]indole]",–,no RMA activity,–,–
"Clc1ccc2[nH]c3c(c2c1)CCN(c1nc2ncccc2s1)C3 [Compound 4d, 6-Chloro-2-([1,3]thiazolo[4,5-b]pyridin-2-yl)-2,3,4,9-tetrahydro-1H-pyrido[3,4-b]indole]",–,abolished,–,–
"Clc1ccc2nc(N3CCc4c([nH]c5ccc(Cl)cc45)C3)sc2c1 [Compound 4a, 6-Chloro-2-(6-chloro-1,3-benzothiazol-2-yl)-2,3,4,9-tetrahydro-1H-pyrido[3,4-b]indole]",> 64 µg/mL,–,13.2 µg/mL,RMA activity (ratio of MIC/MRC) (MRSA ATCC BAA-44 [2]): 32 fold
"CCn1c2c(c3cc(Cl)ccc31)CCN(c1nc3ccc(Cl)cc3s1)C2 [Compound 4o, 6-Chloro-2-(6-chloro-1,3-benzothiazol-2-yl)-9-ethyl-2,3,4,9-tetrahydro-1H-pyrido[3,4-b]indole]",–,abolished,–,–
"FC(F)(F)Oc1ccc2nc(N3CCc4c([nH]c5ccc(Cl)cc45)C3)sc2c1 [Compound 4t, 6-Chloro-2-[6-(trifluoromethoxy)-1,3-benzothiazol-2-yl]-2,3,4,9-tetrahydro-1H-pyrido[3,4-b]indole]",–,lost the RMA activity completely,7.3 µg/mL,MIC (MRSA ATCC BAA-44 [1]): 1 µg/mL
"FC(F)(F)c1cnc2nc(N3CCc4c([nH]c5ccc(Cl)cc45)C3)sc2c1 [Compound 4e, 6-Chloro-2-[6-(trifluoromethyl)[1,3]thiazolo[4,5-b]pyridin-2-yl]-2,3,4,9-tetrahydro-1H-pyrido[3,4-b]indole]",–,abolished,–,–
"Clc1ccc2[nH]c3c(c2c1)CCN(c1nc2ccccc2s1)C3 [Compound 4b, 2-(1,3-Benzothiazol-2-yl)-6-chloro-2,3,4,9-tetrahydro-1H-pyrido[3,4-b]indole]",–,no RMA activity,–,–
"CCOC(=O)C1c2[nH]c3ccc(Cl)cc3c2CCN1c1nc2ccc(Cl)cc2s1 (centres unmarked) [Compound 4l, Ethyl 6-chloro-2-(6-chloro-1,3-benzothiazol-2-yl)-2,3,4,9-tetrahydro-1H-pyrido[3,4-b]indole-1-carboxylate]",–,abolished,–,–
"CN(C)C(=O)C1CN(c2nc3ccc(Cl)cc3s2)Cc2[nH]c3ccc(Cl)cc3c21 (racemic) [Compound 9, 6-Chloro-2-(6-chlorobenzo[d]thiazol-2-yl)-N,N-dimethyl-2,3,4,9-tetrahydro-1H-pyrido[3,4-b]indole-4-carboxamide]",–,significantly decreased or abolished the RMA activity,–,–
"N=C(N)NCC1CN(c2nc3ccc(Cl)cc3s2)Cc2[nH]c3ccc(Cl)cc3c21 (racemic) [Compound 12g, 1-((6-chloro-2-(6-chlorobenzo[d]thiazol-2-yl)-2,3,4,9-tetrahydro-1H-pyrido[3,4-b]indol-4-yl)methyl)guanidine hydrochloride]",–,–,–,MIC (MRSA ATCC BAA-44 [1]; hydrochloride): 1 µg/mL; MIC (MRSA ATCC BAA-44 [1]; Staphylococcus aureus): 2 µg/mL; GI50 at 24 h [3]: 14.1 µg/mL; MIC (MRSA-252): 2 µg/mL; MIC (MSSA): 0.5 µg/mL; MIC (B. subtilis NR-607): 2 µg/mL; MIC (E. faecium 28977): 2 µg/mL; MIC (E. faecium HM-460): 4 µg/mL
"Nc1cc(Cl)c2nc(N3CCc4c([nH]c5ccc(Cl)cc45)C3)sc2c1 [Compound 4ad, 4-Chloro-2-(6-chloro-1,3,4,9-tetrahydro-2H-pyrido[3,4-b]indol-2-yl)-1,3-benzothiazol-6-amine]",–,good RMA activities,> 100 µg/mL,"MIC (MRSA ATCC BAA-44 [1]): >32 µg/mL; potentiation of antibiotics (in words) (multiple MRSA strains; five MRSA strains, cefazolin and cefuroxime): potentiates both antibiotic cefazolin and cefuroxime; concentration that re-sensitizes multiple MRSA strains to cephalosporins (multiple MRSA strains; multiple MRSA strains, cephalosporins): 2 µg/mL"

# Further lines, with some results ahead:
MIC (MRSA ATCC BAA-44 [1]; [4]),Compound,RMA activity (in words) (MRSA ATCC BAA-44 [2]),GI50 (HeLa cells),other results
> 64 µg/mL,"COC(=O)C1Cc2c([nH]c3ccc(Cl)cc23)CN1c1nc2ccc(Cl)cc2s1 (centres unmarked) [Compound 4m, Methyl 6-chloro-2-(6-chloro-1,3-benzothiazol-2-yl)-2,3,4,9-tetrahydro-1H-pyrido[3,4-b]indole-3-carboxylate]",abolished,–,–
32 µg/mL,"O=C(O)C1CN(c2nc3ccc(Cl)cc3s2)Cc2[nH]c3ccc(Cl)cc3c21 (racemic) [Compound 8, 6-Chloro-2-(6-chlorobenzo[d]thiazol-2-yl)-2,3,4,9-tetrahydro-1H-pyrido[3,4-b]indole-4-carboxylic acid]",significantly decreased or abolished the RMA activity,65 µg/mL,–
> 64 µg/mL,"Clc1ccc2[nH]c3c(c2c1)CCN(c1nc2c(Cl)cccc2s1)C3 [Compound 4w, 6-Chloro-2-(4-chloro-1,3-benzothiazol-2-yl)-2,3,4,9-tetrahydro-1H-pyrido[3,4-b]indole]",maintained similar RMA activity,27.7 µg/mL,–
> 64 µg/mL,"FC(F)(F)c1ccc2nc(N3CCc4c([nH]c5ccc(Cl)cc45)C3)sc2c1 [Compound 4s, 6-Chloro-2-[6-(trifluoromethyl)-1,3-benzothiazol-2-yl]-2,3,4,9-tetrahydro-1H-pyrido[3,4-b]indole]",–,4.6 µg/mL,increase of RMA activity relative to 4a (MRSA ATCC BAA-44 [2]): 4 fold
> 64 µg/mL,"Clc1ccc2[nH]c3c(c2c1)CCN(c1nc2ccc(Br)cc2s1)C3 [Compound 4p, 2-(6-Bromo-1,3-benzothiazol-2-yl)-6-chloro-2,3,4,9-tetrahydro-1H-pyrido[3,4-b]indole]",retained the RMA activity,5.1 µg/mL,–
> 32 µg/mL,"COC(=O)C1CN(c2nc3ccc(Cl)cc3s2)Cc2[nH]c3ccc(Cl)cc3c21 (racemic) [Compound 4n, Methyl 6-chloro-2-(6-chlorobenzo[d]thiazol-2-yl)-2,3,4,9-tetrahydro-1H-pyrido[3,4-b]indole-4-carboxylate]",without compromising the RMA activity,6.6 µg/mL,RMA activity (ratio of MIC/MRC) (MRSA ATCC BAA-44 [2]): 32 fold
4 µg/mL,"Clc1ccc2[nH]c3c(c2c1)CCN(c1nc2cccc(Cl)c2s1)C3 [Compound 4u, 6-Chloro-2-(7-chloro-1,3-benzothiazol-2-yl)-2,3,4,9-tetrahydro-1H-pyrido[3,4-b]indole]",reduced RMA activity,6.7 µg/mL,MIC (in words) (MRSA ATCC BAA-44 [1]; MRSA BAA-44): increased MIC
